These results are taken from patent US20260306640A1, “TECHNOLOGIES TARGETING CELL STATES” (Auron Therapeutics, Inc., priority 2023, published 2026).

What all share (assay type): cell-based
In assay [1] the target is T1, KAT2A (Homo sapiens, UniProt Q92830). As to the kind of experiment: KAT2A degradation, Western Blot (Jess), MOLM-13 cells. Also on record: degrader, Western blot. As to conditions: MOLM-13 cells, KAT2A, 24 h, Western Blot, vs DMSO; read-out: KAT2A MOLM-13 DC50. The procedure: MOLM-13 cells or NCI-H1048 cells were used for Western Blot analysis of KAT2A degradation. KAT2B degradation can be measured in a similar manner with NCI-H1048 cells.
T1 sequence (Q92830 whole entry): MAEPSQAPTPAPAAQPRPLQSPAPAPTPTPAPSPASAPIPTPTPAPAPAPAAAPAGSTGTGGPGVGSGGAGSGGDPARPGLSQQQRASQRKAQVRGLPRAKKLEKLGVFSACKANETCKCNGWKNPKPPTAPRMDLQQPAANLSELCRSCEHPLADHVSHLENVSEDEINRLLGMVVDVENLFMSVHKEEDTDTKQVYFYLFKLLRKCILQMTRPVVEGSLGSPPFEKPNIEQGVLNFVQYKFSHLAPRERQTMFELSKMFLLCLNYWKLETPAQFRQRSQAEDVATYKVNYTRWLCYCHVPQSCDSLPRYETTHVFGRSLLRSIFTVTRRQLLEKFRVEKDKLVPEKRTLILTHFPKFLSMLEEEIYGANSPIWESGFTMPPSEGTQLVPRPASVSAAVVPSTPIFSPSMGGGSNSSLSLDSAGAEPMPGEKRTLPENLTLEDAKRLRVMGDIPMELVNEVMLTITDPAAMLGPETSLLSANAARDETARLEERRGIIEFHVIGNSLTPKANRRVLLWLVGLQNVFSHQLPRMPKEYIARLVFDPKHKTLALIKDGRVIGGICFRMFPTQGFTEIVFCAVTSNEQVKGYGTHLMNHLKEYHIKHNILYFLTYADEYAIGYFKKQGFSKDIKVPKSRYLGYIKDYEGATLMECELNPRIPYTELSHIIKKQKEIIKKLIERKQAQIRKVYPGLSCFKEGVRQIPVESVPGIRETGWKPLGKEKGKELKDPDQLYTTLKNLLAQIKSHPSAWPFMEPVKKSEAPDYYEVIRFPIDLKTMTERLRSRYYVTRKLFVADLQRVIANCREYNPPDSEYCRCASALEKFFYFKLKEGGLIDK
MOLM-13 cells were maintained at 37° C. in 5% CO2 and 90% humidity in RPMI 1640 supplemented with 20% fetal bovine serum (FBS) and 1× penicillin/streptomycin. Cells were plated in full media at 1-2 million cells/2 mL in a 6-well tissue culture treated plate with or without compounds for 24 h at 37° C. in 5% CO2.
MOLM-13 cells or NCI-H1048 cells were washed with PBS, then lysed with RIPA buffer containing 1×protease and phosphatase inhibitors (SantaCruz Biotechnologies Cat #sc-24948A). Protein was isolated by centrifugation at 12,000×g for 10 minutes at 4° C. and supernatant was collected. Protein was quantified via Bradford assay. Samples were diluted to 4 μg lysate in 16 μL RIPA buffer and then 4 μL of Jess Sample Buffer. Samples were heated at 95° C. for 5 minutes. Samples were loaded onto 12-230 kDa Jess™ Separation Module, 8×25 capillary cartridges (SM-W004, Biotechne). Antibodies loaded were: Primary antibody for KAT2A (GCN5L2 (C26A10) Rabbit mAb (3305, CST)) and for KAT2B (PCAF (C14G9)) Rabbit mAb (3378, CST) at 1:1000 and Anti-Rabbit Detection Module for Jess™ (Cat No #DM-001, Biotechne). Signal was detected by chemiluminescence.
DC50 values were determined from percent reduction of protein as compared to the DMSO control.
(In general: Immunoblotting shows a protein as a band on a membrane.)

The target of assay [2] is T1, KAT2A. Put plainly: KAT2A degradation, Western Blot (Jess), NCI-H1048 cells. Further details: degrader, Western blot (Jess). The note with it: NCI-H1048 cells, KAT2A, 24 h, Western Blot, vs DMSO; read-out: KAT2A NCI-H1048 DC50. In a few lines: (§1)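 NCI-H1048 cells grown in HITES medium with 5% FBS were treated with compounds for 24 h at 37° C. Lysates were run by capillary Western (Jess) with KAT2A or KAT2B antibodies and chemiluminescent detection. DC50 derived from percent protein reduction versus DMSO control.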

Assay [3] deals with KAT2B (Homo sapiens, UniProt Q92831). As to the kind of experiment: KAT2B degradation, Western Blot (Jess), NCI-H1048 cells. The note with it: NCI-H1048 cells, KAT2B, 24 h, Western Blot, vs DMSO; read-out: KAT2B NCI-H1048 DC50. Also on record: degrader, Western blot (Jess). In a few lines:
as §1

Sequence of KAT2B (Q92831 whole entry): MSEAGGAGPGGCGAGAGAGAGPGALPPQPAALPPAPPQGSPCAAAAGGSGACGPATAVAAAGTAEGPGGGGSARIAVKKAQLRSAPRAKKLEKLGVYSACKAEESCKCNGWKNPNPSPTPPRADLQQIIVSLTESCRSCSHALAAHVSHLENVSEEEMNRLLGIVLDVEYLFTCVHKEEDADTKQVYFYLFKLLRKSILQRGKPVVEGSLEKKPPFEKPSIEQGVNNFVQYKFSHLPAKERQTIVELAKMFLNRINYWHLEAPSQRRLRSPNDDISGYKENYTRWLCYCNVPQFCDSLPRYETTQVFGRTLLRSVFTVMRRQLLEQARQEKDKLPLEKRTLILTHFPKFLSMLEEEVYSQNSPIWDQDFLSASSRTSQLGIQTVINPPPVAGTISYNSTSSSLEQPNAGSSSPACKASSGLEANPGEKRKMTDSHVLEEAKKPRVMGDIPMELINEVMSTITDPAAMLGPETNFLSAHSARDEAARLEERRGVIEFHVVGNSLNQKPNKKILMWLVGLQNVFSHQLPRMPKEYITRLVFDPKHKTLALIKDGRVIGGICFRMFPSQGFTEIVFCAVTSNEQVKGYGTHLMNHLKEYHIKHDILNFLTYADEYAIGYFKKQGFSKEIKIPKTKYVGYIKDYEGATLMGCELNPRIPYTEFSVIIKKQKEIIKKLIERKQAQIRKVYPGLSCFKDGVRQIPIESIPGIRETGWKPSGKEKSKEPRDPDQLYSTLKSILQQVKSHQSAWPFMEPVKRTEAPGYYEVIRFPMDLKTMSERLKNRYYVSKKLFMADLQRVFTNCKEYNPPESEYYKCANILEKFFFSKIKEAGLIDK

Regarding `CN1C[C@H](Nc2cnn(C)c(=O)c2Br)C[C@H](c2ccc(C(=O)N3CCC4(CCN(c5ccc(C6CCC(=O)NC6=O)cc5)C4)C3)cc2)C1` (stereo partly shown) [Compound 82], in assay [1], the 50% degradation concentration (DC50) was below 1 nM.
On the same count and under the same terms, in the case of `CN1C[C@H](Nc2cnn(C)c(=O)c2Br)C[C@H](c2ccc(C(=O)N(C)Cc3ccc(Oc4cccc5c4C(=O)N(C4CCC(=O)NC4=O)C5=O)cc3)cc2)C1` (stereo partly shown) [Compound 33] it was below 1 nM.
The same measure, in the same setting: the figure for `CN1C[C@H](Nc2cnn(C)c(=O)c2Br)C[C@H](c2ccc(C(=O)N3CCN(c4ccc5c(c4)oc(=O)n5C4CCC(=O)NC4=O)CC3)cc2)C1` (stereo partly shown) [Compound 181] is 1 to 30 nM.
On the same count and under the same terms, the figure for `CN1C[C@H](Nc2cnn(C)c(=O)c2Br)C[C@H](c2ccc(C(=O)N3CCN(CC4CCN(c5cccc6c5C(=O)N(C5CCC(=O)NC5=O)C6=O)CC4)CC3)cc2)C1` (stereo partly shown) [Compound 9] is below 1 nM.
`CN1C[C@H](Nc2cnn(C)c(=O)c2Br)C[C@H](c2ccc(C(=O)N3CCC4(CCN(c5ccc6c(c5)C(=O)N(C5CCC(=O)NC5=O)C6=O)C4)C3)cc2)C1` (stereo partly shown) [Compound 98]: in assay [1], the DC50 lay in the range of 1 to 30 nM.
Take `CN1C[C@H](Nc2cnn(C)c(=O)c2Br)C[C@H](c2ccc(C(=O)OCC3CCN(c4cccc5c4C(=O)N(C4CCC(=O)NC4=O)C5=O)CC3)cc2)C1` (stereo partly shown) [Compound 32]: the DC50 in assay [1] is 1 to 30 nM.
On the same count and under the same terms, in the case of `CN1C[C@H](Nc2cnn(C)c(=O)c2Br)C[C@H](c2ccc(C(=O)N(C)Cc3ccc(COc4cccc5c4C(=O)N(C4CCC(=O)NC4=O)C5=O)cc3)cc2)C1` (stereo partly shown) [Compound 55] it was below 1 nM; in that of `CN(Cc1ccc(Oc2cccc3c2C(=O)N(C2CCC(=O)NC2=O)C3=O)cc1)Cc1ccc([C@H]2C[C@@H](Nc3cnn(C)c(=O)c3Br)CN(C)C2)cc1` (stereo partly shown) [Compound 48], below 1 nM; in that of `CN1C[C@H](Nc2cnn(C)c(=O)c2Br)C[C@H](c2ccc(CN3CCC(c4ccc5c(c4)CN(C4CCC(=O)NC4=O)C5=O)C3)cc2)C1` (stereo partly shown) [Compound 113], below 1 nM.
As to `CN1C[C@H](Nc2cnn(C)c(=O)c2Br)C[C@H](c2ccc(C(=O)N3CCC(N4CCN(C5CCC(=O)NC5=O)CC4)CC3)cc2)C1` (stereo partly shown) [Compound 161], the DC50 in assay [1] is above 30 nM.
As for `CN1C[C@H](Nc2cnn(C)c(=O)c2Cl)C[C@H](c2ccc(C(=O)N3CCC4(CC3)CCN(c3ccc(C(=O)NC5CCC(=O)NC5=O)c(F)c3)CC4)cc2)C1` (stereo partly shown) [Compound 405], the DC50 in assay [2] was below 1 nM; in assay [3] it was 1 to 30 nM.
The like results for `Cc1c(N[C@@H]2C[C@H](c3ccc(C(=O)N4CCC5(CC4)CCN(c4ccc(C6CCC(=O)NC6=O)cc4OC(F)(F)F)CC5)cc3)CN(C)C2)cnn(C)c1=O` (stereo partly shown) [Compound 269] were, in that order, 1 to 30 nM and above 30 nM.
The like results for `Cc1c(N2CCC3(CCN(C(=O)c4ccc([C@H]5C[C@@H](Nc6cnn(C)c(=O)c6Br)CN(C)C5)cc4)CC3)CC2)ccc(C2CCC(=O)NC2=O)c1F` (stereo partly shown) [Compound 235] were, in that order, below 1 nM and below 1 nM.
The like results for `C[C@H](Nc1nn(C)c(=O)c2ncccc12)[C@H](c1ccc(C(=O)N2CCC3(CC2)CCN(c2ccc(C4CCC(=O)NC4=O)cc2)CC3)cc1)N(C)C` (stereo partly drawn) [Compound 430, 3-(4-(9-(4-((1S,2S)-1-(dimethylamino)-2-((7-methyl-8-oxo-7,8-dihydropyrido[2,3-d]pyridazin-5-yl)amino)propyl)benzoyl)-3,9-diazaspiro[5.5]undecan-3-yl)phenyl)-piperidine-2,6-dione] were, in that order, below 1 nM and above 30 nM.
With `CN1C[C@H](Nc2cnn(C)c(=O)c2Cl)C[C@H](c2ccc(CN3CCN(c4cc(C5CCC(=O)NC5=O)ccn4)CC3)cc2)C1` (stereo partly shown) [Compound 356], the figures for the DC50 in assay [2] and in assay [3] were 1 to 30 nM and above 30 nM, respectively.
As for `Cc1cc(N2CC3(CCN(C(=O)c4ccc([C@H]5C[C@@H](Nc6cnn(C)c(=O)c6Cl)CN(C)C5)cc4)CC3)C2)ccc1C1CCC(=O)NC1=O` (stereo partly shown) [Compound 290], the DC50 in assay [2] is 1 to 30 nM; in assay [3] it was above 30 nM.
The like results for `CN1C[C@H](Nc2cnn(C)c(=O)c2Br)C[C@H](c2ccc(C(=O)N3CC(C#Cc4ccc(C5CCC(=O)NC5=O)cc4)C3)cc2)C1` (stereo partly shown) [Compound 335] were, in that order, below 1 nM and above 30 nM.
The like results for `CN1C[C@H](Nc2cnn(C)c(=O)c2Br)C[C@H](c2ccc(C(=O)N3CCC4(CC3)CCN(c3ccc(C5CCC(=O)NC5=O)cn3)CC4)cc2)C1` (stereo partly shown) [Compound 261] were, in that order, below 1 nM and below 1 nM.
The like results for `Cc1c(N[C@@H]2C[C@H](c3ccc(CN4CCN(c5cccc(C6CCC(=O)NC6=O)c5)CC45CC5)cc3)CN(C)C2)cnn(C)c1=O` (stereo partly shown) [Compound 349] were, in that order, below 1 nM and above 30 nM.
In the case of `CN1C[C@H](Nc2cnn(C)c(=O)c2Cl)C[C@H](c2ccc(C(=O)N3CC(c4ccc5c(c4)C(=O)N(C4CCC(=O)NC4=O)C5=O)C3)cc2)C1` (stereo partly shown) [Compound 198], the DC50 was 1 to 30 nM in assay [2] and above 30 nM in assay [3].
The matching figures for `CN1C[C@H](Nc2cnn(C)c(=O)c2Cl)C[C@H](c2ccc(C(=O)N3CCC(Cc4ccc(N5CCC(=O)NC5=O)c(F)c4)CC3)cc2)C1` [Compound 327]: below 1 nM and 1 to 30 nM.
Consider `Cc1c(N2CCC3(CCN(C(=O)c4ccc([C@H]5C[C@@H](Nc6cnn(C)c(=O)c6Cl)CN(C)C5)cc4)CC3)CC2)ccc(C2CCC(=O)NC2=O)c1F` (stereo partly shown) [Compound 237], for which the DC50 was below 1 nM in assay [2] and 1 to 30 nM in assay [3].
The matching figures for `Cc1cc(C2CCC(=O)NC2=O)ccc1N1CCC2(CCN(C(=O)c3ccc([C@H]4C[C@@H](Nc5cnn(C)c(=O)c5C)CN(C)C4)cc3)CC2)CC1` (stereo partly shown) [Compound 249]: below 1 nM and 1 to 30 nM.
The like results for `Cc1cc(C2CCC(=O)NC2=O)cnc1N1CCC2(CCN(C(=O)c3ccc([C@H]4C[C@@H](Nc5cnn(C)c(=O)c5Br)CN(C)C4)cc3)CC2)CC1` (stereo partly shown) [Compound 274] were, in that order, below 1 nM and below 1 nM.
The like results for `Cc1ncsc1-c1ccc(CNC(=O)[C@@H]2C[C@@H](O)CN2C(=O)[C@@H](NC(=O)CN2CCN(C3CCN(C(=O)c4ccc([C@H]5C[C@@H](Nc6cnn(C)c(=O)c6Br)CN(C)C5)cc4)CC3)CC2)C(C)(C)C)cc1` [Compound 408] were, in that order, above 30 nM and above 30 nM.
Turning to `Cc1ncsc1-c1ccc(CNC(=O)[C@@H]2C[C@@H](O)CN2C(=O)[C@@H](NC(=O)CCCCNC(=O)c2ccc([C@H]3C[C@@H](Nc4cnn(C)c(=O)c4Br)CN(C)C3)cc2)C(C)(C)C)cc1` [Compound 422], the DC50 in assay [2] and in assay [3] was above 30 nM in each case.
Turning to `Cc1cc(N2CCC3(CCN(C(=O)c4ccc([C@H]5C[C@@H](Nc6cnn(C)c(=O)c6Cl)CN(C)C5)cc4)CC3)CC2)ccc1OC1CCC(=O)NC1=O` (stereo partly shown) [Compound 365], the DC50 in assay [2] and in assay [3] was below 1 nM in each case.
Regarding `CN1C[C@H](Nc2cnn(C)c(=O)c2Cl)C[C@H](c2ccc(C(=O)N3CCC4(CC3)CCN(c3ccc5c(C6CCC(=O)NC6=O)nccc5c3)CC4)cc2)C1` (stereo partly shown) [Compound 293], the results for the DC50 in assay [2] and in assay [3] were below 1 nM and 1 to 30 nM, respectively.
The like results for `CN1C[C@H](Nc2cnn(C)c(=O)c2Br)C[C@H](c2ccc(C(=O)N3CCC4(CCC(c5ccc(C6CCC(=O)NC6=O)cc5)CC4)CC3)cc2)C1` (stereo partly shown) [Compound 326] were, in that order, below 1 nM and below 1 nM.
With `CN1C[C@H](Nc2cnn(C)c(=O)c2Cl)C[C@H](c2ccc(C(=O)N3CCC4(CC3)CCN(c3ccn(C5CCC(=O)NC5=O)c(=O)c3)CC4)cc2)C1` (stereo partly shown) [Compound 262], the DC50 in assay [2] was below 1 nM; in assay [3], 1 to 30 nM.
The matching figures for `CN1C[C@H](Nc2cnn(C)c(=O)c2Cl)C[C@H](c2ccc(C(=O)N3CCC4(CC3)CCN(c3ccc(C5CCC(=O)NC5=O)c(F)c3)CC4)cc2)C1` (stereo partly shown) [Compound 317]: below 1 nM and below 1 nM.
`Cc1cc(N2CCC3(CCN(C(=O)c4ccc([C@H]5C[C@@H](Nc6cnn(C)c(=O)c6Cl)CN(C)C5)cc4)CC3)CC2)cnc1C1CCC(=O)NC1=O` (stereo partly shown) [Compound 247]: the figures for the DC50 in assay [2] and in assay [3] were below 1 nM and 1 to 30 nM, respectively.
The matching figures for `CN1C[C@H](Nc2cnn(C)c(=O)c2Br)C[C@H](c2ccc(CN3CCN(c4cccc(C5CCC(=O)NC5=O)c4)CC34CC4)cc2)C1` (stereo partly shown) [Compound 348]: below 1 nM and 1 to 30 nM.
The like results for `Cc1c(N[C@@H]2C[C@H](c3ccc(C(=O)N4CCC5(CC4)CCN(c4ccc(C6CCC(=O)NC6=O)c(F)c4F)CC5)cc3)CN(C)C2)cnn(C)c1=O` (stereo partly shown) [Compound 252] were, in that order, below 1 nM and 1 to 30 nM.

For orientation: DC50 means the concentration giving 50% degradation.
